Reference: publication PMC10011573, “Development of novel broad-spectrum antimicrobial lipopeptides derived from plantaricin NC8 β” (Scientific Reports, 2023)
Read-outs that look alike come from different tables or passages of the source. Residues, ends and D or L forms follow the SMILES beside them. No end group written: not given here. *: point of attachment. Pentadecanoyl = CCCCCCCCCCCCCCC(=O)*; Decanoyl = CCCCCCCCCC(=O)*; Octanoyl = CCCCCCCC(=O)*; Butyryl = CCCC(=O)*

How the values were obtained:
E. coli (K-12 MG1655) = system: E. coli (K-12 MG1655)
Experimental: (§1) S. aureus (ATCC 29213, MSSA, ATCC, Manassas, VA), E. coli (K-12 MG1655) and clinical isolates of S. aureus, E. coli, E. faecium, K. pneumoniae, A. baumannii, P. aeruginosa and E. cloacae obtained from the Department of Laboratory Medicine at Örebro University Hospital were streaked on Luria–Bertani (LB) agar plates and incubated at 37 °C overnight. Single colonies were inoculated into 5 ml of LB broth and incubated on a shaker (400 rpm) at 37 °C overnight. The bacterial concentrations were determined by viable count and were adjusted to correlate with approximately 10^9 CFU/ml.
(§2) The broth microdilution method was used to determine minimal inhibitory concentration (MIC) and minimal bactericidal concentration (MBC), in accordance with the EUCAST standards for the broth microdilution method. Two-fold serial dilutions of the lipopeptides were used, and the final concentrations ranged from 0.19 to 100 µM. In brief, two-fold serial dilutions of the lipopeptides were performed in a 96-well plate in PBS, with a final volume of 100 µl per well, after which 100 µl of LB-broth media containing approximately 5 × 10^5 CFU/ml of bacteria was added to each well. The plate was then incubated for 20 h in 37 °C on a shaker (400 rpm). The effect of lipopeptide-antibiotic combinations was investigated by performing checkerboard assays. The assays were performed in accordance with the MIC and MBC tests conducted above, but with horizontal and longitudinal two-fold serial dilutions of the tested compounds. […] The fractional inhibitory concentration (FIC) and fractional bactericidal concentration (FBC) were calculated by the equation (MIC or MBC of peptide in combination/MIC or MBC of peptide alone) + (MIC or MBC of antibiotic in combination/MIC or MBC of antibiotic alone). Synergy was defined as FIC/FBC ≤ 0.5, additive when 0.5 < FIC/FBC ≤ 1, indifferent when 1 < FIC/FBC < 2 and antagonistic when FIC/FBC ≥ 2. All experiments were repeated at least three times.

[1] = system: S. aureus (ATCC 29213, MSSA)
Experimental: as §1, §2

[2] = Carboxyfluorescein release assay, bacterial liposome model; type: biochemical; settings: for EC50: 75:25 POPC:POPG liposomes, 25 µM lipid, 10 mM PBS pH 7.4, 10^–5–10^2 µM peptide, 60 min, fluorescence, Hill fit, n = 3, read-out: EC50 Bacterial (concentration that triggers 50% CF release)
Experimental: (§3) Liposomes were prepared by thin-film hydration method. Lipids stock solutions (10 mg/ml in chloroform, Avanti Polar Lipids, Inc., Alabaster, United States) of the lipids 1-palmitoyl-2-oleoyl-sn-glycero-3-phosphocholine (POPC), 1-palmitoyl-2-oleoyl-sn-glycero-3-phospho-L-serine (POPS), 1-Hexadecanoyl-2-(9Z-Octadecenoyl)-sn-Glycero-3-Phosphoglycerol (POPG) and Cholesterol (Chol) were employed. Bacterial liposomes were prepared with a 75:25 ratio of POPC:POPG and mammalian liposomes were prepared with a 65:5:30 ratio of POPC:POPS:Chol. Lipid solutions were thoroughly homogenised, and the solvent was evaporated with the use of a dry N2 steam to yield a lipid cake. […] The lipid film was subsequently hydrated with a 5(6)-CF solution (50 mM CF, 10 mM PBS, 90 mM NaCl, pH 7.4). Following a 10 min incubation on orbital shaker (50 min^−1), the solution was vortexed for 60 s on medium speed. A mini extruder (Avanti Polar Lipids, Inc., United States) was employed and 21 extrusions were performed through a 0.1 µm filter membrane (Nuclepore track-etched hydrophilic membrane, Cytiva, Whatman, MA, United States), resulting in monodispersed unilamellar liposomes. Directly before use the liposomes were purified from unencapsulated CF by filtration through a gel filtration column (PD Minitrap G-25 column, Cytiva, United States), against PBS buffer (10 mM, pH 7.4).
(§4) Peptide and lipopeptide activity towards liposome models were evaluated using a carboxyfluorescein (CF) release assay. Liposomes were diluted in PBS (10 mM, pH 7.4) to a final lipid concentration of 25 µM and incubated with peptides (10^–5–10^2 µM) in a 96-well plate (n = 3). CF release was monitored using an Infinite M1000 PRO plate reader every 2.5 min for 1 h. Full (100%) CF release was obtained by addition of 1% Triton X-100 solution followed by 10 min incubation. CF release percentage was evaluated according to the formula 100 * (F − F0)/(FT − F0), where F indicates the instantaneous fluorescence, FT the total fluorescence and F0 the background fluorescence prior to peptide addition. Data were fitted to a Hill-1 curve using MATLAB R2019a (The MathWorks Inc., Natick, Massachusetts, United States) and the half maximum effective concentration (EC50) was extracted.

[3] = Carboxyfluorescein release assay, mammalian liposome model; type: biochemical; settings: 65:5:30 POPC:POPS:Chol. liposomes, 25 µM lipid, 10 mM PBS pH 7.4, 10^–5–10^2 µM peptide, 60 min, fluorescence, Hill fit, n = 3; read-out: EC50 Mammalial (concentration that triggers 50% CF release)
Experimental: as §3, §4

S. aureus (ATCC 29213) = type: cell-based; settings: Table 6; ATCC 29213; checkerboard assay, 50:50 PBS/LB-broth, 200 µL
Experimental: as §2, with “Two-fold serial dilutions of the lipopeptides were used, and the final concentrations ranged from 0.19 to 100 µM.” left out, “Synergy was defined as FIC/FBC ≤ 0.5, additive when 0.5 < FIC/FBC ≤ 1, indifferent when 1 < FIC/FBC < 2 and antagonistic when FIC/FBC ≥ 2.” left out

[4] = Table 3, K-12 MG1655, broth microdilution, 50:50 PBS/LB-broth, 200 µL, 20 h, 37 °C
[5] = Table 3, ATCC 29213, broth microdilution, 50:50 PBS/LB-broth, 200 µL, 20 h, 37 °C

Molecule | E. coli MBC (E. coli (K-12 MG1655); K-12, 20 h) [µM] | E. coli MIC (E. coli (K-12 MG1655); K-12, 20 h) [µM] | S. aureus MBC ([1]; ATCC 29213, 20 h) [µM] | S. aureus MIC ([1]; ATCC 29213, 20 h) [µM] | EC50 [2] [nM] | EC50 [3] [nM] | also measured
CCCC(=O)N[C@@H](CC(C)C)C(=O)NCC(=O)N[C@H](C(=O)N[C@@H](CCCCN)C(=O)N[C@H](C(=O)N[C@@H](CC(C)C)C(=O)N[C@@H](Cc1c[nH]c2ccccc12)C(=O)N[C@@H](CO)C(=O)N[C@@H](C)C(=O)N[C@@H](Cc1ccc(O)cc1)C(=O)N[C@@H](CCCCN)C(=O)N[C@@H](Cc1c[nH]cn1)C(=O)N[C@@H](CCCNC(=N)N)C(=O)N[C@@H](CCCCN)C(=O)N[C@H](C(=O)N[C@H](C(N)=O)[C@@H](C)CC)[C@@H](C)O)[C@@H](C)CC)[C@@H](C)CC [L-6-C4] (Butyryl-LGIKILWSAYKHRKTI-NH2) | 25 | 12.5 | 25 | 12.5 | 110 | > 10000 | 
CCCCCCCC(=O)N[C@@H](CC(C)C)C(=O)NCC(=O)N[C@H](C(=O)N[C@@H](CCCCN)C(=O)N[C@H](C(=O)N[C@@H](CC(C)C)C(=O)N[C@@H](Cc1c[nH]c2ccccc12)C(=O)N[C@@H](CO)C(=O)N[C@@H](C)C(=O)N[C@@H](Cc1ccc(O)cc1)C(=O)N[C@@H](CCCCN)C(=O)N[C@@H](Cc1c[nH]cn1)C(=O)N[C@@H](CCCNC(=N)N)C(=O)N[C@@H](CCCCN)C(=O)N[C@H](C(=O)N[C@H](C(N)=O)[C@@H](C)CC)[C@@H](C)O)[C@@H](C)CC)[C@@H](C)CC [L-6-C8] (Octanoyl-LGIKILWSAYKHRKTI-NH2) | 12.5 | 12.5 | 3.1 | 3.1 | 190 | 940 | 
CCCCCCCCCC(=O)N[C@@H](CC(C)C)C(=O)NCC(=O)N[C@H](C(=O)N[C@@H](CCCCN)C(=O)N[C@H](C(=O)N[C@@H](CC(C)C)C(=O)N[C@@H](Cc1c[nH]c2ccccc12)C(=O)N[C@@H](CO)C(=O)N[C@@H](C)C(=O)N[C@@H](Cc1ccc(O)cc1)C(=O)N[C@@H](CCCCN)C(=O)N[C@@H](Cc1c[nH]cn1)C(=O)N[C@@H](CCCNC(=N)N)C(=O)N[C@@H](CCCCN)C(=O)N[C@H](C(=O)N[C@H](C(N)=O)[C@@H](C)CC)[C@@H](C)O)[C@@H](C)CC)[C@@H](C)CC [L-6-C10] (Decanoyl-LGIKILWSAYKHRKTI-NH2) | > 100 | > 100 | > 100 | 50 | 1100 | 680 | 
CCCCCCCCCCCCCCC(=O)N[C@@H](CC(C)C)C(=O)NCC(=O)N[C@H](C(=O)N[C@@H](CCCCN)C(=O)N[C@H](C(=O)N[C@@H](CC(C)C)C(=O)N[C@@H](Cc1c[nH]c2ccccc12)C(=O)N[C@@H](CO)C(=O)N[C@@H](C)C(=O)N[C@@H](Cc1ccc(O)cc1)C(=O)N[C@@H](CCCCN)C(=O)N[C@@H](Cc1c[nH]cn1)C(=O)N[C@@H](CCCNC(=N)N)C(=O)N[C@@H](CCCCN)C(=O)N[C@H](C(=O)N[C@H](C(N)=O)[C@@H](C)CC)[C@@H](C)O)[C@@H](C)CC)[C@@H](C)CC [L-6-C15] (Pentadecanoyl-LGIKILWSAYKHRKTI-NH2) | > 100 | > 100 | > 100 | > 100 | 19400 | 870 | 
CN(C)[C@@H]1C(O)=C(C(N)=O)C(=O)[C@@]2(O)C(O)=C3C(=O)c4c(O)cccc4[C@@](C)(O)[C@H]3C[C@@H]12 [Tetracycline] |  |  |  |  |  |  | S. aureus MBC, antibiotic alone (S. aureus (ATCC 29213)): 8 µg/mL; S. aureus MIC, antibiotic alone (S. aureus (ATCC 29213)): 0.5 µg/mL
Ac-ILWSAYKHR-NH2 [S2] | > 100 | > 100 | > 100 | > 100 |  |  | 
Ac-KILWSAYKHR-NH2 [S1] | > 100 | > 100 | > 100 | > 100 |  |  | 
Ac-LWSAYKHR-NH2 [S3] | > 100 | > 100 | > 100 | > 100 |  |  | 
Ac-WSAYK-NH2 [S6] | > 100 | > 100 | > 100 | > 100 |  |  | 
Ac-WSAYKH-NH2 [S5] | > 100 | > 100 | > 100 | > 100 |  |  | 
Ac-WSAYKHR-NH2 [S4] | > 100 | > 100 | > 100 | > 100 |  |  | 
PEG800-LGIKILWSAYKHRKTI [L-6-Peg800] |  |  |  |  |  |  | E. coli MBC (E. coli (K-12 MG1655); [4]): > 100 µM; E. coli MIC (E. coli (K-12 MG1655); [4]): > 100 µM; S. aureus MBC [1, 5]: > 100 µM; S. aureus MIC [1, 5]: > 100 µM
SVPTSVYTLGIKILWSAYKHRKTIEKSFNKGFYH [PLNC8 β, reference compound] |  |  |  |  | 20 | 1260 | E. coli MIC (E. coli (K-12 MG1655); Table 2, K-12 MG1655, broth microdilution, 50:50 PBS/LB-broth, 200 µL, 20 h, 37 °C): > 100 µM; E. coli MBC (E. coli (K-12 MG1655); Table 2, K-12 MG1655, broth microdilution, 50:50 PBS/LB-broth, 20 h, 37 °C, 10 µl drops on LB-agar): > 100 µM; E. coli MBC (E. coli (K-12 MG1655); [4]): > 100 µM; S. aureus MBC ([1]; Table 2, ATCC 29213, broth microdilution, 50:50 PBS/LB-broth, 20 h, 37 °C, 10 µl drops on LB-agar): > 100 µM; S. aureus MIC ([1]; Table 2, ATCC 29213, broth microdilution, peptide in PBS, bacteria in LB-broth, 200 µL, 50:50 PBS/broth, ~5 × 10^5 CFU/ml, 20 h, 37 °C, repeated at least three times): > 100 µM; S. aureus MBC [1, 5]: > 100 µM; S. aureus MIC [1, 5]: > 100 µM; CF release ([2]; bacterial-mimicking liposomes, peptide 100 pM, after 60 min of incubation): ~ 20%
